This passage reports logD results from the SangsterLogP compilation.

Where a SMILES comes first, the peptide text is derived from it.

The first data set in a line: method code SF-HPLC, from DOI: 10.1002/qsar.19900090302. Conditions: pH 7.0.
`CC(=O)NCC(=O)N[C@@H](CC(C)C)C(N)=O` registered a logD of -0.78.

Molecule `CC(=O)N[C@@H](CC(C)C)C(=O)N[C@@H](CC(N)=O)C(N)=O` displayed a log distribution coefficient (logD) of -1.3.

For `CC(=O)N[C@H](C(=O)N[C@@H](C)C(=O)N[C@@H](C)C(N)=O)C(C)C`, the log distribution coefficient (logD) is -1.4.

In turn, `CC[C@H](C)[C@H](NC(=O)[C@@H](NC(=O)[C@H](C)NC(C)=O)C(C)C)C(N)=O` showed a logD of -0.2.

In turn, `CC(=O)N[C@@H](C)C(=O)N[C@@H](CC(C)C)C(N)=O` (Ac-Ala-Leu-NH2) returned a pH-dependent lipophilicity (logD) of -0.54.

As to `CC(=O)N[C@@H](C)C(=O)N[C@@H](CC(C)C)C(=O)N[C@H](C(N)=O)C(C)C` (Ac-Ala-Leu-Val-NH2), the logD was -0.14.

On to `CC(=O)N[C@@H](C)C(=O)N[C@H](C(N)=O)C(C)C` (Ac-Ala-Val-NH2), for which the logD is -1.13.

`CC[C@H](C)[C@H](NC(=O)[C@H](CC(N)=O)NC(C)=O)C(N)=O` (Ac-Asn-Ile-NH2) returned a logD of -1.43.

In turn, `CC(=O)NC(CC(N)=O)C(=O)NC(C(N)=O)C(C)C` (stereo not drawn) (Ac-Asn-Val-NH2; configuration not given here) yielded a log distribution coefficient (logD) of -1.85.

On to `CC(=O)NC(CCC(N)=O)C(=O)NC(CC(C)C)C(N)=O` (stereo not drawn) (Ac-Gln-Leu-NH2; configuration not given here), for which the pH-dependent lipophilicity (logD) was -1.32.

`CC(=O)NC(CCC(N)=O)C(=O)NC(C(N)=O)C(C)C` (stereo not drawn) (Ac-Gln-Val-NH2; configuration not given here): the pH-dependent lipophilicity (logD) was -1.85.

In the case of `CC(=O)NCC(=O)N[C@@H](C)C(=O)N[C@H](C(N)=O)C(C)C` (Ac-Gly-Ala-Val-NH2), the log distribution coefficient (logD) was -1.56.

Consider `CC(=O)NCC(=O)N[C@@H](CC(C)C)C(=O)NCC(N)=O` (Ac-Gly-Leu-Gly-NH2), for which the log distribution coefficient (logD) was -1.23.

For the molecule `CC(=O)NCC(=O)N[C@H](C(N)=O)C(C)C` (Ac-Gly-Val-NH2), the log distribution coefficient (logD) was -1.33.

The molecule `CC[C@H](C)[C@H](NC(C)=O)C(=O)N[C@@H](CC(N)=O)C(N)=O` (Ac-Ile-Asn-NH2) yielded a log distribution coefficient (logD) of -1.41.

For the molecule `CC[C@H](C)[C@H](NC(C)=O)C(=O)N[C@H](C(N)=O)C(C)C` (Ac-Ile-Val-NH2), the pH-dependent lipophilicity (logD) is 0.16.

`CC[C@H](C)[C@H](NC(=O)[C@H](CC(C)C)NC(C)=O)C(N)=O` (Ac-Leu-Ile-NH2) displayed a log distribution coefficient (logD) of 0.68.

In the case of `CC(=O)N[C@@H](CC(C)C)C(=O)N[C@H](C(=O)N[C@@H](CC(C)C)C(N)=O)[C@@H](C)O` (Ac-Leu-Thr-Leu-NH2), the log distribution coefficient (logD) was 0.24.

As to `CC(=O)N[C@@H](CC(C)C)C(=O)N[C@H](C(N)=O)C(C)C` (Ac-Leu-Val-NH2), the pH-dependent lipophilicity (logD) came out at 0.26.

In turn, `CC(=O)N[C@@H](CO)C(=O)N[C@H](C(N)=O)C(C)C` (Ac-Ser-Val-NH2) yielded a pH-dependent lipophilicity (logD) of -1.53.

Molecule `CC[C@H](C)[C@H](NC(=O)[C@@H](NC(C)=O)[C@@H](C)O)C(N)=O` (Ac-Thr-Ile-NH2) displayed a pH-dependent lipophilicity (logD) of -0.86.

As to `CC(=O)N[C@H](C(=O)N[C@H](C(N)=O)C(C)C)[C@@H](C)O` (Ac-Thr-Val-NH2), the log distribution coefficient (logD) is -1.25.

`CC(=O)N[C@H](C(=O)N[C@@H](C)C(N)=O)C(C)C` (Ac-Val-Ala-NH2) came in with a logD of -1.14.

As to `CC(=O)N[C@H](C(=O)N[C@@H](C)C(=O)N[C@H](C(N)=O)C(C)C)C(C)C` (Ac-Val-Ala-Val-NH2), the logD was -0.67.

Take `CC(=O)NC(C(=O)NC(CCC(N)=O)C(N)=O)C(C)C` (stereo not drawn) (Ac-Val-Gln-NH2; configuration not given here): the pH-dependent lipophilicity (logD) is -1.82.

Molecule `CC[C@H](C)[C@H](NC(=O)[C@@H](NC(C)=O)C(C)C)C(=O)NCC(N)=O` (Ac-Val-Ile-Gly-NH2) returned a logD of -0.45.

For `CC[C@H](C)[C@H](NC(=O)[C@@H](NC(=O)[C@@H](NC(C)=O)C(C)C)C(C)C)C(N)=O` (Ac-Val-Val-Ile-NH2), the logD amounted to 0.49.

Consider `CC(=O)N[C@H](C(=O)N[C@H](C(N)=O)C(C)C)C(C)C` (Ac-Val-Val-NH2), for which the log distribution coefficient (logD) is -0.32.

A further data set can be described thus: method code SF-AS, from DOI: 10.1002/qsar.19900090302. To be noted: pH 7.0.
In turn, `CC(=O)N[C@@H](CO)C(=O)N[C@@H](Cc1ccccc1)C(N)=O` gave a log distribution coefficient (logD) of -0.79.

For `CC(=O)N[C@@H](Cc1c[nH]c2ccccc12)C(=O)NCC(=O)N[C@@H](Cc1ccccc1)C(N)=O`, the pH-dependent lipophilicity (logD) stood at 0.99.

For the molecule `CC(=O)N[C@@H](Cc1ccc(O)cc1)C(=O)N[C@H](C(N)=O)C(C)C`, the logD was -0.2.

`CC(=O)N[C@@H](Cc1ccccc1)C(=O)NCC(=O)N[C@@H](CC(C)C)C(N)=O` had a log distribution coefficient (logD) of 0.6.

In turn, `CC(=O)N[C@@H](Cc1ccccc1)C(=O)N[C@@H](CCC(N)=O)C(N)=O` registered a log distribution coefficient (logD) of -1.03.

Molecule `CC(=O)N[C@@H](C)C(=O)NCC(=O)N[C@@H](Cc1ccccc1)C(N)=O` (Ac-Ala-Gly-Phe-NH2) gave a log distribution coefficient (logD) of -0.71.

For the molecule `CC(=O)N[C@@H](C)C(=O)N[C@@H](Cc1ccc(O)cc1)C(=O)N[C@@H](CC(C)C)C(N)=O` (Ac-Ala-Tyr-Leu-NH2), the logD was -0.04.

Turning to `CC(=O)N[C@@H](C)C(=O)N[C@@H](Cc1ccc(O)cc1)C(=O)N[C@@H](Cc1ccccc1)C(N)=O` (Ac-Ala-Tyr-Phe-NH2), the logD was 0.26.

Turning to `CC(=O)NC(CC(N)=O)C(=O)NC(Cc1ccccc1)C(N)=O` (stereo not drawn) (Ac-Asn-Phe-NH2; configuration not given here), the logD was -1.14.

In the case of `CC(=O)N[C@@H](CCC(N)=O)C(=O)N[C@@H](Cc1ccccc1)C(N)=O` (Ac-Gln-Phe-NH2), the logD is -1.14.

`CC(=O)NCC(=O)N[C@@H](Cc1ccccc1)C(N)=O` (Ac-Gly-Phe-NH2) displayed a logD of -0.56.

`CC[C@H](C)[C@H](NC(C)=O)C(=O)N[C@@H](Cc1ccccc1)C(=O)N[C@@H](C)C(N)=O` (Ac-Ile-Phe-Ala-NH2) returned a logD of 0.52.

`CC(=O)N[C@@H](CC(C)C)C(=O)N[C@@H](CO)C(=O)N[C@@H](Cc1ccccc1)C(N)=O` (Ac-Leu-Ser-Phe-NH2) yielded a logD of 0.23.

Molecule `CC(=O)N[C@@H](Cc1ccccc1)C(=O)NCC(N)=O` (Ac-Phe-Gly-NH2) came in with a logD of -0.5.

`CC[C@H](C)[C@H](NC(=O)[C@H](Cc1ccccc1)NC(C)=O)C(=O)NCC(N)=O` (Ac-Phe-Ile-Gly-NH2) had a logD of 0.34.

Turning to `CC(=O)N[C@@H](Cc1ccccc1)C(=O)N[C@H](C(N)=O)C(C)C` (Ac-Phe-Val-NH2), the logD was 0.43.

`CC(=O)N[C@@H](Cc1c[nH]c2ccccc12)C(=O)N[C@@H](C)C(=O)N[C@@H](C)C(N)=O` (Ac-Trp-Ala-Ala-NH2) showed a logD of -0.31.

In the case of `CC(=O)N[C@@H](Cc1c[nH]c2ccccc12)C(=O)N[C@@H](C)C(=O)N[C@H](C(N)=O)C(C)C` (Ac-Trp-Ala-Val-NH2), the logD was 0.36.

Turning to `CC[C@H](C)[C@H](NC(=O)[C@H](Cc1c[nH]c2ccccc12)NC(C)=O)C(=O)NCC(N)=O` (Ac-Trp-Ile-Gly-NH2), the logD is 0.62.

`CC(=O)N[C@@H](Cc1c[nH]c2ccccc12)C(=O)N[C@H](C(N)=O)C(C)C` (Ac-Trp-Val-NH2): the logD amounted to 0.73.

The molecule `CC(=O)N[C@@H](Cc1ccc(O)cc1)C(=O)N[C@@H](CC(C)C)C(N)=O` (Ac-Tyr-Leu-NH2) gave a logD of 0.32.

Take `CC(=O)N[C@@H](Cc1ccc(O)cc1)C(=O)N[C@@H](Cc1ccccc1)C(N)=O` (Ac-Tyr-Phe-NH2): the log distribution coefficient (logD) was 0.54.

On to `CC(=O)N[C@H](C(=O)N[C@@H](Cc1ccccc1)C(=O)N[C@@H](C)C(N)=O)C(C)C` (Ac-Val-Phe-Ala-NH2), for which the log distribution coefficient (logD) came to 0.06.
